Results published in patent US11130766B2, “Deuterated thienopiperidine derivatives, manufacturing method, and application thereof” (JIANGSU TASLY DIYI PHARMACEUTICAL CO., LTD., priority 2015, dated 2021).
Where two headings read alike, the source gives them in different places. Marks after values point to notes of the source that are not given here.

Legend:
Rat Tail Bleeding Model = settings: SD rat, 10 mg/kg oral gavage, 4 h after administration
Method: genus, strain SD rat, • Provider: Slac • Weight: 250-350 g • Sex: male • Animal number: 30
Experimental Method: • The animals were allowed adapt to the environment after arrival for 1 week and fasted for 16 hours prior to the experiment. • The tail bleeding time started to be recorded 2 h after oral administration of the test compounds and 4 h after oral administration of clopidogrel. • The rats were anesthetized with pentobarbital sodium (50 mg/kg, ip) 10 min prior to the recording of the tail bleeding time, after the rat was completely anesthetized and reaching the detection time, the tail was cut at 1.3 mm from the rat tail-tip with a scissor and perpendicularly immerged into a saline at 37° C. Timing recording was not started until the blood flow appeared. • The timing recording was stopped when the bleeding time interval was longer than 20 seconds. The maximum observation time for the blood flow was set for 40 minutes. If it was longer than 40 minutes, the timing recording was stopped and the time was recorded as 40 minutes.

[1] = system: ADP induced platelet aggregation; assay: ADP induced platelet aggregation, maximum aggregation rate after administration to rats; assay type: in vivo, Wistar male rats; settings: ADP induced, rats, 3 mg/kg, blood drawn 2 hours after administration
Method: Addition of small dose of ADP (concentration less than 0.9 μmol/L) into the platelet suspension could lead to rapid platelet aggregation, followed by quick disaggregation; if moderate dose of ADP (about 1.0 μmol/L) was added, then the second irreversible aggregation phase appeared not long after the end of the first aggregation phase and the disaggregation. The maximum aggregation rate of the irreversible aggregation phase was used to evaluate the effect of the test samples on the function of blood coagulation.
Animals: Wistar male rats, weighing 230-250 g, were purchased from Vital River Laboratory Animal Technology Co., Ltd.
Reagent: ADP, Sigma Corporation.
Test samples: 16 test samples were provided by the Tasly Group; referred to China patent application 201310428052.4 for manufacturing method of TSC-1˜4 and TSC-6˜9.
Dose of administration: the test samples were suspended with 0.25% CMC, administered 3 mg/kg weight, volume of administration: 2 mL.
2 Hours after administration, the rats were anesthetized with pentobarbital sodium, and blood was drawn from the abdominal aorta, anticoagulated with sodium citrate with a ratio of 1:9, and centrifuged to obtain the platelet-rich plasma and platelet-poor plasma, with the mixed ratio of the platelet-poor plasma to platelet-rich plasma=3:1.

esterase [2] = assay: Esterase hydrolysis rates of TSD-8 and clopidogrel bisulfate, in vitro incubation in rat whole blood; assay type: in vitro ADME; set-up: sample test results (concentration) Num. 1 / sample test results (concentration) Num. 2 / sample test results (concentration) Num. 3 / sample test results (concentration) Mean: unit not given here; settings: rat whole blood, 37° C., 30 μg/mL
[3] = system: Rat Arteriovenous Thrombus Loop Model; settings: SD rat, 10 mg/kg oral gavage, 4 h after administration, 15 min circulation
Description: genus, strain: SD rat, • Provider: Slac • Weight: 250-350 g • Sex: male • Animal number: 30
Apparatus and Materials • Swab, dry tampon, alcohol pad, anerdian tampon. • Surgical scissor, ophthalmic forceps, hemostatic forceps, microsurgical scissor, microsurgical forceps, artery clamps. • 3-0 surgical suture, thick PE tube (I.D.*O.D.=1.14 mm*1.63 mm, 8 cm long), think PE tube (I.D.*O.D.=0.72 mm*1.22 mm, 6 cm long). • Surgical board, binding rope, timer, precise electronic balance, weighing paper. • Syringe, normal saline.
7. Experimental Method • After arrival, the animals were let adapt to the environment for 1 week and fasted for 16 hours prior to the test. • The arteriovenous blood loop circulation was started 2 h after oral administration of the test compounds and 4 h after oral administration of clopidogrel. • The rats were anesthetized with pentobarbital sodium (50 mg/kg, ip) 15 min before the arteriovenous blood loop circulation was started. • The left external jugular vein and the right carotid artery were separated and inserted with thin PE tubes respectively. • Two PE tubes were connected with another thick PE tube with a length of 8 cm to form a circulation passage. There's a 6 cm surgical suture (3-0) in the thick PE tube. • 15 min after the circulation passage was opened, the blood flow was blocked, the filament was taken out and weighed after the blood was sucked out. The thrombus weight was obtained after subtraction of the weight of the filament itself.

esterase [4] = settings: rat whole blood, 37° C., 30 μg/mL
Method: The hydrolysis rates of formula TSD-6 and clopidogrel bisulfate in the rat whole blood were determined by employing the in vitro incubation method.
3 mL of the rat fresh whole blood was taken and placed in a glass test tube. 30 μg/mL of formula TSD-6 and clopidogrel bisulfate (prepared with saline) were added, with 3 parallel tests for each group. The test tubes were shocked at a constant temperature of 37° C., 100 μL of the mixture was taken out at fixed time points of 10 min, 20 min, 30 min, 40 min, 50 min, 60 min, 70 min, 80 min, 90 min, 100 min, 110 min, and 120 min, into which 900 μL of methanol was added to stop the reaction immediately, then 100 μL methanol/water (1:1, v/v) and 100 μL internal standard (diazepam, 100 ng/mL) were added sequentially. The mixture was centrifuged at 13000 rpm at low temperature for 10 min, the supernatant was transferred into another EP tube, and 20 μL of the supernatant was taken for sample injection.

COC(=O)[C@H](c1ccccc1Cl)N1CCc2sccc2C1 [clopidogrel, Clopidogrel, reference compound]
Tail Bleeding Time (s) (Rat Tail Bleeding Model): 1896*** s
Maximum Platelet Aggregation Rate [1]: 46.77 ± 8.28
time at which the concentration in the whole blood was lower than the quantitative lower limit (esterase [2]): around 50 min
sample test results (concentration) Mean (esterase [2]; 10 min): 199.50
sample test results (concentration) Num. 1 (esterase [2]; 10 min): 232
sample test results (concentration) Num. 3 (esterase [2]; 10 min): 167
sample test results (concentration) Mean (esterase [2]; 20 min): 90.53
sample test results (concentration) Num. 1 (esterase [2]; 20 min): 64.1
sample test results (concentration) Num. 2 (esterase [2]; 20 min): 131
sample test results (concentration) Num. 3 (esterase [2]; 20 min): 76.5
sample test results (concentration) Mean (esterase [2]; 30 min): 34.07
sample test results (concentration) Num. 1 (esterase [2]; 30 min): 20.6
sample test results (concentration) Num. 2 (esterase [2]; 30 min): 53
sample test results (concentration) Num. 3 (esterase [2]; 30 min): 28.6
sample test results (concentration) Mean (esterase [2]; 40 min): 11.82
sample test results (concentration) Num. 1 (esterase [2]; 40 min): 6.46
sample test results (concentration) Num. 2 (esterase [2]; 40 min): 14.3
sample test results (concentration) Num. 3 (esterase [2]; 40 min): 14.7
sample test results (concentration) Mean (esterase [2]; 50 min): 0.62
sample test results (concentration) Num. 1 (esterase [2]; 50 min): 0.479
sample test results (concentration) Num. 2 (esterase [2]; 50 min): 1.01
sample test results (concentration) Num. 3 (esterase [2]; 50 min): 0.359
sample test results (concentration) Mean (esterase [2]; 60 min): 0.53
sample test results (concentration) Num. 1 (esterase [2]; 60 min): 0.347
sample test results (concentration) Num. 2 (esterase [2]; 60 min): 1.24
sample test results (concentration) Num. 3 (esterase [2]; 60 min): 0
sample test results (concentration) Mean (esterase [2]; 90 min): 0.00
sample test results (concentration) Num. 1 (esterase [2]; 90 min): 0
sample test results (concentration) Num. 2 (esterase [2]; 90 min): 0
sample test results (concentration) Num. 3 (esterase [2]; 90 min): 0
sample test results (concentration) Mean (esterase [2]; 100 min): 0.00
sample test results (concentration) Num. 1 (esterase [2]; 100 min): 0
sample test results (concentration) Num. 2 (esterase [2]; 100 min): 0
sample test results (concentration) Num. 3 (esterase [2]; 100 min): 0
sample test results (concentration) Mean (esterase [2]; 110 min): 0.00
sample test results (concentration) Num. 1 (esterase [2]; 110 min): 0
sample test results (concentration) Num. 2 (esterase [2]; 110 min): 0
sample test results (concentration) Num. 3 (esterase [2]; 110 min): 0
sample test results (concentration) Mean (esterase [2]; 120 min): 0.00
sample test results (concentration) Num. 1 (esterase [2]; 120 min): 0
sample test results (concentration) Num. 2 (esterase [2]; 120 min): 0
sample test results (concentration) Num. 3 (esterase [2]; 120 min): 0
Thrombus (mg) [3]: 20.1** mg
time at which the concentration in the whole blood was lower than the quantitative lower limit (esterase [4]): around 50 min
sample test results (concentration) Mean (esterase [4]; 10 min): 211.0
sample test results (concentration) Num. 1 (esterase [4]; 10 min): 238
sample test results (concentration) Num. 2 (esterase [4]; 10 min): 221
sample test results (concentration) Num. 3 (esterase [4]; 10 min): 174
sample test results (concentration) Mean (esterase [4]; 20 min): 89.6
sample test results (concentration) Num. 1 (esterase [4]; 20 min): 66.2
sample test results (concentration) Num. 2 (esterase [4]; 20 min): 128
sample test results (concentration) Num. 3 (esterase [4]; 20 min): 74.7
sample test results (concentration) Mean (esterase [4]; 30 min): 35.1
sample test results (concentration) Num. 1 (esterase [4]; 30 min): 24.1
sample test results (concentration) Num. 2 (esterase [4]; 30 min): 57.2
sample test results (concentration) Num. 3 (esterase [4]; 30 min): 24.1
sample test results (concentration) Mean (esterase [4]; 40 min): 11.2
sample test results (concentration) Num. 1 (esterase [4]; 40 min): 6.27
sample test results (concentration) Num. 2 (esterase [4]; 40 min): 15.1
sample test results (concentration) Num. 3 (esterase [4]; 40 min): 19.3
sample test results (concentration) Mean (esterase [4]; 50 min): 0.70
sample test results (concentration) Num. 1 (esterase [4]; 50 min): 0.449
sample test results (concentration) Num. 2 (esterase [4]; 50 min): 1.12
sample test results (concentration) Num. 3 (esterase [4]; 50 min): 0.518
sample test results (concentration) Mean (esterase [4]; 60 min): 0.62
sample test results (concentration) Num. 1 (esterase [4]; 60 min): 0.417
sample test results (concentration) Num. 2 (esterase [4]; 60 min): 1.45
sample test results (concentration) Num. 3 (esterase [4]; 60 min): 0
sample test results (concentration) Mean (esterase [4]; 90 min): 0
sample test results (concentration) Num. 1 (esterase [4]; 90 min): 0
sample test results (concentration) Num. 2 (esterase [4]; 90 min): 0
sample test results (concentration) Num. 3 (esterase [4]; 90 min): 0
sample test results (concentration) Mean (esterase [4]; 100 min): 0
sample test results (concentration) Num. 1 (esterase [4]; 100 min): 0
sample test results (concentration) Num. 2 (esterase [4]; 100 min): 0
sample test results (concentration) Num. 3 (esterase [4]; 100 min): 0
sample test results (concentration) Mean (esterase [4]; 110 min): 0
sample test results (concentration) Num. 1 (esterase [4]; 110 min): 0
sample test results (concentration) Num. 2 (esterase [4]; 110 min): 0
sample test results (concentration) Num. 3 (esterase [4]; 110 min): 0
sample test results (concentration) Mean (esterase [4]; 120 min): 0
sample test results (concentration) Num. 1 (esterase [4]; 120 min): 0
sample test results (concentration) Num. 2 (esterase [4]; 120 min): 0
sample test results (concentration) Num. 3 (esterase [4]; 120 min): 0
